These results are taken from patent US20250313535A1, “ALPHA 4 BETA 7 INTEGRIN MODULATORS AND USES THEREOF” (DICE MOLECULES SV, INC., priority 2022, published 2025).

In experiment [1] the target is α4β7 integrin (Homo sapiens (Human), UniProt P13612+P26010). Kind of experiment: Integrin Adhesion Assay: Protocol 4 (MAdCAM-coated plate, RPMI-8866 cells with stable LOF mutation of the ITGB1 gene). Format: cell-based. The conditions noted are these: Protocol 4; RPMI-8866 cells with LOF mutation of ITGB1, MAdCAM; read-out: Mean IC50 α4β7 KO. The method in brief: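 RPMI-8866 cells with CRISPR/Cas9 knockout of ITGB1 (2×10^6/mL) were added to MAdCAM-coated wells with compound (1% DMSO) in HEPES/NaCl buffer with 1 mM MnCl2, 0.1 mM CaCl2 and 1% BSA, then incubated 1 h at 37 °C. After four washes, adherent cells were quantified by CellTiter-Glo luminescence. Percent inhibition versus DMSO and control compound was fitted to 4-parameter curves.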
α4β7 integrin, sequence (P13612 34-1032): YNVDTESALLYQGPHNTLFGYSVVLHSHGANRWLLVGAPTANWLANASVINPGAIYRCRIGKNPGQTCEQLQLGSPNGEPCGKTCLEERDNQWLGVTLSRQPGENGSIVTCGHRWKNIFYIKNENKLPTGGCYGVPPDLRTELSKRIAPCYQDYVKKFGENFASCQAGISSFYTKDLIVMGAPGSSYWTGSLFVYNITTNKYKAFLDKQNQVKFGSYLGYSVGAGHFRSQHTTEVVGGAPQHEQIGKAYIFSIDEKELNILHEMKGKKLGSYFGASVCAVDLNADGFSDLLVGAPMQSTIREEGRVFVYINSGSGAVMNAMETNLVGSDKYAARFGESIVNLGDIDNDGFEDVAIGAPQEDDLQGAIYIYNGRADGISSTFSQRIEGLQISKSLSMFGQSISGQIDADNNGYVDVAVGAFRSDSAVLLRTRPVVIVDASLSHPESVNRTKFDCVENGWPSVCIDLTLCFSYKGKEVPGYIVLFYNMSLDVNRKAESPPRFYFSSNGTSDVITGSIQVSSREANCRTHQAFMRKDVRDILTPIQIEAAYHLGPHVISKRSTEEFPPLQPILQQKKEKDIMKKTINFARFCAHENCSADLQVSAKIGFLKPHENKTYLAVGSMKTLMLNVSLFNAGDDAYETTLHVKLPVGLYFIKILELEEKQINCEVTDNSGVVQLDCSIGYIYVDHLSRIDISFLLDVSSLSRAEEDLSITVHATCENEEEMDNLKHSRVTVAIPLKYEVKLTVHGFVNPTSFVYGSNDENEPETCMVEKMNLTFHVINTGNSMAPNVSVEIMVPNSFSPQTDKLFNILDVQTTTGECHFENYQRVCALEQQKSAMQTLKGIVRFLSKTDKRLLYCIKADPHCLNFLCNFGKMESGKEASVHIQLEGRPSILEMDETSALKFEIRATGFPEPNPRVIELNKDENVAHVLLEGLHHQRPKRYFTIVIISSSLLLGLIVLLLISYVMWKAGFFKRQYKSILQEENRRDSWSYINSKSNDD
α4β7 integrin, sequence (P26010 20-798): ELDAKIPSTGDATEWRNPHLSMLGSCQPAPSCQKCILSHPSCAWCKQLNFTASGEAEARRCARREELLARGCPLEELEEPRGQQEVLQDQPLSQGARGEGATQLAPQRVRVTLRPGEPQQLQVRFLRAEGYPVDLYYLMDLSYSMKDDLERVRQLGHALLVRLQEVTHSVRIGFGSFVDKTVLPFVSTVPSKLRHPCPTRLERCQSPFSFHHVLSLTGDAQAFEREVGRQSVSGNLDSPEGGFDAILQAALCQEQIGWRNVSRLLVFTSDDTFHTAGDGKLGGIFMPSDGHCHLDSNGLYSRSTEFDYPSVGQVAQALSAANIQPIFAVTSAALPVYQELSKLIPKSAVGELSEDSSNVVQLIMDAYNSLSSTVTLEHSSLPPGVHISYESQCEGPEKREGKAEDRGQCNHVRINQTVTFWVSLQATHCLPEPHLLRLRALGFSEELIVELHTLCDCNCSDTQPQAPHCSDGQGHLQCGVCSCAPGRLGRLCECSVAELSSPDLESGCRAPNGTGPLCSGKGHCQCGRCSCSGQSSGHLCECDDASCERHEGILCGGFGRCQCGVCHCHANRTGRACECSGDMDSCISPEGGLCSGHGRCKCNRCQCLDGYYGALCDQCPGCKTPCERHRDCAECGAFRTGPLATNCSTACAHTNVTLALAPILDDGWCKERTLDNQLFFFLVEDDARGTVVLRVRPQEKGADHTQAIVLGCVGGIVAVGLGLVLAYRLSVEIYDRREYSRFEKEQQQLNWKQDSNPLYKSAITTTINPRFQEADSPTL

Experiment [2] concerns the target α4β1 integrin (Homo sapiens (Human), UniProt P05556+P13612). Briefly: Integrin Adhesion Assay: Protocol 5 (VCAM-coated plate, RPMI-8866 cells with stable LOF mutation of the ITGB7 gene). Format: cell-based. The conditions noted are these: Protocol 5; RPMI-8866 cells with LOF mutation of ITGB7, VCAM; read-out: Mean IC50 α4β1 KO. Summed up: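 RPMI-8866 B cells with CRISPR/Cas9 ITGB7 knockout (clonal, verified by flow cytometry) adhered to VCAM-coated wells for 1 h at 37° C in HEPES/NaCl buffer with 1 mM MnCl2, 0.1 mM CaCl2, 1% BSA, 1% DMSO. Bound cells quantified by CellTiter-Glo luminescence after washing; % inhibition versus DMSO and control, 4-parameter fit.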

SMILES strings stand for the structures.

α4β1 integrin, sequence (P13612 34-1032): as the sequence (P13612 34-1032) above
α4β1 integrin, sequence (P05556 21-798): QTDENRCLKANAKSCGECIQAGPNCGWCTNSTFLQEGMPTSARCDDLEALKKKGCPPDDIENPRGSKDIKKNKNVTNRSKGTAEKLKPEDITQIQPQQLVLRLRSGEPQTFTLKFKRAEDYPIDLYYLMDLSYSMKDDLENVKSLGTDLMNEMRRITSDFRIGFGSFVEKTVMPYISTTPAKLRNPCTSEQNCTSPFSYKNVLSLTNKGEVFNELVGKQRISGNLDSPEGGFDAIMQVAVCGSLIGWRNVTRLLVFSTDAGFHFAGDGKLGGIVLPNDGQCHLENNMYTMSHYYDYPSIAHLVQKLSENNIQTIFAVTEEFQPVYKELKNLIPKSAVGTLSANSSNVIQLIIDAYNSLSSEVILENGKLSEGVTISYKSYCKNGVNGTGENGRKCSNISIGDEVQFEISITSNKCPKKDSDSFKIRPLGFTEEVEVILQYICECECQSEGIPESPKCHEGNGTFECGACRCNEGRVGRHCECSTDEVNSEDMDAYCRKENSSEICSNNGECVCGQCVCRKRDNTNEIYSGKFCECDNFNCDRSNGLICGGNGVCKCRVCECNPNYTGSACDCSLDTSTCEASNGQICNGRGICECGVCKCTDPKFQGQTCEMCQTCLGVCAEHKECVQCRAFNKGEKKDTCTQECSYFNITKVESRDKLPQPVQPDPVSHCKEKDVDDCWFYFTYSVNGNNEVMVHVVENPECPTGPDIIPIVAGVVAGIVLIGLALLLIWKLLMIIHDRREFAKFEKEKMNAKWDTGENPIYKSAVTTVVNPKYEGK

In the case of `O=C(O)[C@H](Cc1cccc2c(-c3ncc(CN4CC5CC(C5)C4)c4ccccc34)cccc12)NC(=O)C1(C(F)(F)F)CCN(CC(F)(F)F)CC1` [Compound 885], the IC50 in experiment [1] was < 10 nM; in experiment [2], > 1000 nM.

On to `O=C(O)[C@H](Cc1cccc2c(-c3ncc(CN4CCC5(CCC5)C4)c4ccccc34)cccc12)NC(=O)C1(C(F)(F)F)CCN(CC(F)(F)F)CC1` [Compound 886], for which the IC50 in experiment [1] was < 10 nM; in experiment [2], > 1000 nM.

For `O=C(O)[C@H](Cc1cccc2c(-c3ncc(CN4CC5(CC5)C4)c4ccccc34)cccc12)NC(=O)C1(C(F)(F)F)CCN(CC(F)(F)F)CC1` [Compound 887], the IC50 in experiment [1] was < 10 nM; in experiment [2] it was > 1000 nM.

As to `O=C(O)[C@H](Cc1cccc2c(-c3ncc(CN4CCCCC4)c4ccccc34)cccc12)NC(=O)C1(C(F)(F)F)CCN(CC(F)F)CC1` [Compound 888], the results for the IC50 in experiment [1] and in experiment [2] were < 10 nM and > 1000 nM, respectively.

Regarding `COc1cc(CN2CCC(C)(C)CC2)cnc1-c1cccc2c(C[C@H](NC(=O)C3(C(F)(F)F)CCN(CC(F)(F)F)CC3)C(=O)O)cccc12` [Compound 890], the IC50 in experiment [1] was < 10 nM; in experiment [2], > 1000 nM.

For `O=C(O)[C@H](Cc1cccc2c(-c3cc(C(F)(F)F)c(CN4CCCCC4)cn3)cccc12)NC(=O)C1(C(F)(F)F)CCN(CC(F)(F)F)CC1` [Compound 891], the IC50 was 100 to 1000 nM in experiment [1] and > 1000 nM in experiment [2].

On to `C[C@@H]1CN(Cc2cnc(-c3cccc4c(C[C@H](NC(=O)C5(C(F)(F)F)CCN(CC(F)(F)F)CC5)C(=O)O)cccc34)c3ccccc23)C[C@H](C)N1C1CC1` [Compound 892], for which the IC50 in experiment [1] was < 10 nM; in experiment [2] it was 100 to 1000 nM.

Turning to `C[C@@H]1CN(Cc2cnc(-c3cccc4c(C[C@H](NC(=O)C5(C(F)(F)F)CCN(CC(F)(F)F)CC5)C(=O)O)cccc34)c3ccccc23)C[C@H](C)N1` [Compound 893], the IC50 in experiment [1] was < 10 nM; in experiment [2], 100 to 1000 nM.

`CC(C)Oc1cc(CN2CCCCC2)cnc1-c1cccc2c(C[C@H](NC(=O)C3(C(F)(F)F)CCN(CC(F)(F)F)CC3)C(=O)O)cccc12` [Compound 894]: the IC50 in experiment [1] is < 10 nM; in experiment [2], 100 to 1000 nM.

On to `O=C(O)[C@H](Cc1cccc2c(-c3ccc(CN4CCCCC4)cn3)cccc12)NC(=O)C1(C(F)(F)F)CCN(CC(F)F)CC1` [Compound 896], for which the values for the IC50 in experiment [1] and in experiment [2] were 10 to 100 nM and > 1000 nM, respectively.

Regarding `O=C(O)[C@H](Cc1cccc2c(-c3ncc(CN4CCCCC4)cc3C3CC3)cccc12)NC(=O)C1(C(F)(F)F)CCN(CC(F)F)CC1` [Compound 898], the IC50 was < 10 nM in experiment [1] and > 1000 nM in experiment [2].

Consider `Cc1cc(CN2CCC(C(F)(F)F)CC2)cnc1-c1cccc2c(C[C@H](NC(=O)C3(C(F)(F)F)CCN(C4COC4)CC3)C(=O)O)cccc12` [Compound 900], for which the 50% inhibitory concentration (IC50) in experiment [1] is < 10 nM; in experiment [2] it was > 1000 nM.

Regarding `O=C(O)[C@H](Cc1cccc2c(-c3ncc(CN4CCN(C5CC5)CC4)c4ccccc34)cccc12)NC(=O)C1(C(F)(F)F)CCN(CC(F)F)CC1` [Compound 901], the IC50 in experiment [1] was < 10 nM; in experiment [2], 100 to 1000 nM.

On to `Cc1cc(CN2CCC(C)(C)CC2)cnc1-c1cccc2c(C[C@H](NC(=O)C3(C(F)(F)F)CCN(CC(F)F)CC3)C(=O)O)cccc12` [Compound 902], for which the IC50 in experiment [1] is < 10 nM; in experiment [2] it was > 1000 nM.

`O=C(O)[C@H](Cc1cccc2c(-c3ccc(CN4CCCCC4)cn3)cccc12)NC(=O)C1(C(F)(F)F)CCN(CC(F)(F)F)CC1` [Compound 903]: the IC50 is 10 to 100 nM in experiment [1] and > 1000 nM in experiment [2].

In the case of `O=C(O)[C@H](Cc1cccc2c(-c3ncc(CN4CCCC5(CC5)C4)c4ccccc34)cccc12)NC(=O)C1(C(F)(F)F)CCN(CC(F)(F)F)CC1` [Compound 904], the IC50 in experiment [1] was < 10 nM; in experiment [2] it was 100 to 1000 nM.

For `O=C(O)[C@H](Cc1cccc2c(-c3ncc(CN4CCC(F)CC4)c4ccccc34)cccc12)NC(=O)C1(C(F)(F)F)CCN(CC(F)F)CC1` [Compound 905], the IC50 in experiment [1] was < 10 nM; in experiment [2], > 1000 nM.

With `O=C(O)[C@H](Cc1cccc2c(-c3ncc(CN4CC5CC(C5)C4)c4ccccc34)cccc12)NC(=O)C1(C(F)(F)F)CCN(CC(F)F)CC1` [Compound 907], the IC50 was < 10 nM in experiment [1] and > 1000 nM in experiment [2].

As to `O=C(O)[C@H](Cc1cccc2c(-c3ncc(CN4CC5(CC5)C4)c4ccccc34)cccc12)NC(=O)C1(C(F)(F)F)CCN(CC(F)F)CC1` [Compound 908], the IC50 in experiment [1] was < 10 nM; in experiment [2] it was 100 to 1000 nM.

As for `O=C(O)[C@H](Cc1cccc2c(-c3ncc(CN4CCC5(CCC5)C4)c4ccccc34)cccc12)NC(=O)C1(C(F)(F)F)CCN(CC(F)F)CC1` [Compound 909], the values for the IC50 in experiment [1] and in experiment [2] were < 10 nM and 100 to 1000 nM, respectively.

Take `CC1(C)CCCN(Cc2cnc(-c3cccc4c(C[C@H](NC(=O)C5(C(F)(F)F)CCN(CC(F)F)CC5)C(=O)O)cccc34)c3ccccc23)C1` [Compound 910]: the IC50 in experiment [1] was < 10 nM; in experiment [2], > 1000 nM.

With `O=C(O)[C@H](Cc1cccc2c(-c3ncc(CN4C5CCCC4CC5)c4ccccc34)cccc12)NC(=O)C1(C(F)(F)F)CCN(CC(F)F)CC1` [Compound 911], the 50% inhibitory concentration (IC50) in experiment [1] is < 10 nM; in experiment [2], > 1000 nM.

`O=C(O)[C@H](Cc1cccc2c(-c3ncc(CN4CCC5(CC4)CC5)c4ccccc34)cccc12)NC(=O)C1(C(F)(F)F)CCN(CC(F)F)CC1` [Compound 912]: the figures for the IC50 in experiment [1] and in experiment [2] were < 10 nM and > 1000 nM, respectively.

Turning to `O=C(O)[C@H](Cc1cccc2c(-c3ncc(CN4CCOCC45CC5)c4ccccc34)cccc12)NC(=O)C1(C(F)(F)F)CCN(CC(F)F)CC1` [Compound 914], the IC50 was < 10 nM in experiment [1] and 100 to 1000 nM in experiment [2].

With `O=C(O)[C@H](Cc1cccc2c(-c3ncc(CN4CCCC(F)(F)CC4)c4ccccc34)cccc12)NC(=O)C1(C(F)(F)F)CCN(CC(F)F)CC1` [Compound 915], the IC50 is < 10 nM in experiment [1] and > 1000 nM in experiment [2].

For `CC1(C)CCCN(Cc2cnc(-c3cccc4c(C[C@H](NC(=O)C5(C(F)(F)F)CCN(CC(F)F)CC5)C(=O)O)cccc34)c3ccccc23)CC1` [Compound 916], the IC50 was < 10 nM in experiment [1] and 100 to 1000 nM in experiment [2].

`O=C(O)[C@H](Cc1cccc2c(-c3ncc(CN4CCCC4)c4ccccc34)cccc12)NC(=O)C1(C(F)(F)F)CCN(CC(F)F)CC1` [Compound 917]: the half-maximal inhibitory concentration (IC50) in experiment [1] is < 10 nM; in experiment [2], 100 to 1000 nM.

For the compound `O=C(O)[C@H](Cc1cccc2c(-c3ncc(CN4CCCC4)c4ccccc34)cccc12)NC(=O)C1(C(F)(F)F)CCN(CC(F)(F)F)CC1` [Compound 918], the IC50 in experiment [1] was < 10 nM; in experiment [2] it was > 1000 nM.

Regarding `O=C(O)[C@H](Cc1cccc2c(-c3ncc(CN4CCC4)c4ccccc34)cccc12)NC(=O)C1(C(F)(F)F)CCN(CC(F)(F)F)CC1` [Compound 919], the IC50 in experiment [1] was < 10 nM; in experiment [2], > 1000 nM.

As for `O=C(O)[C@H](Cc1cccc2c(-c3ncc(CN4CCC4)c4ccccc34)cccc12)NC(=O)C1(C(F)(F)F)CCN(CC(F)F)CC1` [Compound 920], the IC50 in experiment [1] was < 10 nM; in experiment [2] it was > 1000 nM.

Take `CN(C)Cc1cnc(-c2cccc3c(C[C@H](NC(=O)C4(C(F)(F)F)CCN(CC(F)(F)F)CC4)C(=O)O)cccc23)c2ccccc12` [Compound 921]: the IC50 in experiment [1] is < 10 nM; in experiment [2], 100 to 1000 nM.

Take `CN(Cc1cnc(-c2cccc3c(C[C@H](NC(=O)C4(C(F)(F)F)CCN(CC(F)(F)F)CC4)C(=O)O)cccc23)c2ccccc12)CC(F)F` [Compound 922]: the IC50 in experiment [1] is 10 to 100 nM; in experiment [2], > 1000 nM.

Take `COc1cc(CN2CCC(C)(C)CC2)cnc1-c1cccc2c(C[C@H](NC(=O)C3(C(F)(F)F)CCN(CC(F)F)CC3)C(=O)O)cccc12` [Compound 924]: the IC50 in experiment [1] is < 10 nM; in experiment [2] it was > 1000 nM.

In the case of `COc1cc(CN2CCC(C(F)(F)F)CC2)cnc1-c1cccc2c(C[C@H](NC(=O)C3(C(F)(F)F)CCN(CC(F)F)CC3)C(=O)O)cccc12` [Compound 925], the IC50 in experiment [1] was < 10 nM; in experiment [2] it was > 1000 nM.

Turning to `CC1CCN(Cc2cnc(-c3cccc4c(C[C@H](NC(=O)C5(C(F)(F)F)CCN(CC(F)F)CC5)C(=O)O)cccc34)c3ccccc23)CCC1(F)F` (stereo partly drawn) [Compound 926], the values for the IC50 in experiment [1] and in experiment [2] were < 10 nM and > 1000 nM, respectively.

As to `COc1ccc(CN2CCC(F)(F)CC2)cc1-c1cccc2c(C[C@H](NC(=O)C3(C(F)(F)F)CCN(CC(F)F)CC3)C(=O)O)cccc12` [Compound 927], the IC50 in experiment [1] was < 10 nM; in experiment [2], 100 to 1000 nM.

As to `COc1cc(CN2CCC(F)(F)CC2)cnc1-c1cccc2c(C[C@H](NC(=O)C3(C(F)(F)F)CCN(CC(F)F)CC3)C(=O)O)cccc12` [Compound 928], the values for the concentration for half-maximal inhibition (IC50) in experiment [1] and in experiment [2] were < 10 nM and > 1000 nM, respectively.

As for `CC[C@H]1CCCCN1Cc1cnc(-c2cccc3c(C[C@H](NC(=O)C4(C(F)(F)F)CCN(CC(F)(F)F)CC4)C(=O)O)cccc23)c2ccccc12` [Compound 929], the IC50 was < 10 nM in experiment [1] and 100 to 1000 nM in experiment [2].

For `CC[C@H]1CCCCN1Cc1cnc(-c2cccc3c(C[C@H](NC(=O)C4(C(F)(F)F)CCN(CC(F)F)CC4)C(=O)O)cccc23)c2ccccc12` [Compound 930], the IC50 is < 10 nM in experiment [1] and 100 to 1000 nM in experiment [2].
